The results in this text go back to paper PMC9204419, “A Toolbox for the Generation of Chemical Probes for Baculovirus IAP Repeat Containing Proteins” (Frontiers in Cell and Developmental Biology, 2022).

For one assay, the target named is T1, BIRC4 BIR2 (Homo sapiens, UniProt P98170).
T1 construct: G144 S253; expressed in transfected cells; host or cells: HEK293T
The assay can be described thus: NanoBRET tracer titration, BIRC4 BIR2. In kind it is cell-based. The settings on record: single domain, n = 4; read-out: Tracer KD,app ± SEM, BIRC4 BIR2. For orientation: In BRET a luciferase serves as donor, and the signal depends on an acceptor being close.

For the next assay, the target named is BIRC3 (Homo sapiens, UniProt Q13489). The assay can be described thus: NanoBRET cellular target engagement, full-length BIRC3.
A further assay addresses BIRC2 (Homo sapiens, UniProt Q13490). The assay can be described thus: NanoBRET cellular target engagement, full-length BIRC2. The following applies: Tracer K D, full-length BIRC2, full-length.
The target in the next assay is T2, BIRC4 BIR3 (Homo sapiens, UniProt P98170).
T2 construct: S245 N373; expressed in transfected cells; host or cells: HEK293T
The assay can be described thus: NanoBRET tracer titration, BIRC4 BIR3. In kind it is cell-based. The settings on record: single domain, n = 4; read-out: Tracer KD,app ± SEM, BIRC4 BIR3.

The target in the next assay is T3, BIRC7 BIR (Homo sapiens, UniProt Q96CA5).
T3 sequence (Q96CA5 70-176): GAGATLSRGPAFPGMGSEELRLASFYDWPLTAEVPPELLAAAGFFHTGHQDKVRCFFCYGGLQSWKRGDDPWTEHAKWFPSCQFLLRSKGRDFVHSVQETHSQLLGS
The assay can be described thus: NanoBRET cellular target engagement, single domain BIRC7 BIR. The following applies: Tracer KD,app ± SEM, BIRC7 BIR, single domain, n = 4.

Assay [2] concerns the target T4, BIRC1 BIR[2] (Homo sapiens, UniProt Q13075).
T4 sequence (Q13075 139-251): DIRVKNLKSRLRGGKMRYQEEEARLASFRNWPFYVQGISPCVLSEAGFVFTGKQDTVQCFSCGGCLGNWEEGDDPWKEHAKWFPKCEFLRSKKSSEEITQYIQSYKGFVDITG
The assay can be described thus: NanoBRET cellular target engagement, single domain BIRC1 BIR[2]. The following applies: Tracer KD,app ± SEM, BIRC1 BIR[2], single domain (D139-G251), n = 4.
Method: (§1) In brief: Constructs contained the cDNA of full-length or single domains cloned in frame with an N-terminal NanoLuc-fusion as specified in Supplementary Table S2. Plasmids were transfected into HEK293T cells using FuGENE HD (Promega, E2312) and proteins were allowed to express for 20 h. […] The corresponding transfected cells were added and reseeded at a density of 2.5^5 cells/mL after trypsinization and resuspending in Opti-MEM without phenol red (Life Technologies). […] Competitive displacement data were then graphed using GraphPad Prism 9.3 software using a normalized 3-parameter curve fit with the following equation: Y = 100/(1 + 10^(X-LogIC50)).

Another assay has as its target BIRC4 (Homo sapiens, UniProt P98170). The assay can be described thus: NanoBRET cellular target engagement, full-length BIRC4.
The next assay has as its target T5, BIRC4 BIR1 (Homo sapiens, UniProt P98170).
T5 construct: N4 Q114; expressed in transfected cells; host or cells: HEK293T
The assay can be described thus: NanoBRET tracer titration, BIRC4 BIR1. In kind it is cell-based. The settings on record: single domain, n = 4; read-out: Tracer KD,app ± SEM, BIRC4 BIR1.

The next assay has as its target T6, BIRC1 BIR1 (Homo sapiens, UniProt Q13075).
T6 construct: N256 Q391; expressed in transfected cells; host or cells: HEK293T
The assay can be described thus: NanoBRET tracer titration, BIRC1 BIR1 (third BIR domain of BIRC1). In kind it is cell-based. The following applies: third BIR domain of BIRC1 (N256-Q391), n = 4; read-out: Tracer KD,app ± SEM, BIRC1 BIR1.

The next assay concerns the target BIRC2 BIR2 (Homo sapiens, UniProt Q13490). The assay can be described thus: NanoBRET cellular target engagement, single domain BIRC2 BIR2. The following applies: Tracer KD,app ± SEM, BIRC2 BIR2, single domain, n = 4.
Another assay deals with BIRC3 BIR3 (Homo sapiens, UniProt Q13489). The assay can be described thus: NanoBRET cellular target engagement, single domain BIRC3 BIR3. The settings on record: Tracer KD,app ± SEM, BIRC3 BIR3, single domain, n = 4.
The next assay addresses T7, BIRC3 BIR1 (Homo sapiens, UniProt Q13489).
T7 construct: N6 S116; expressed in transfected cells; host or cells: HEK293T
The assay can be described thus: NanoBRET tracer titration, BIRC3 BIR1. In kind it is cell-based. The following applies: single domain, n = 4; read-out: Tracer KD,app ± SEM, BIRC3 BIR1.

In another assay the target is T8, BIRC5 (Homo sapiens, UniProt O15392).
T8 construct: M1 D142; expressed in transfected cells; host or cells: HEK293T
The assay can be described thus: NanoBRET tracer titration, BIRC5. It counts as cell-based. The following applies: full-length taken as single BIR domain construct, n = 4; read-out: Tracer KD,app ± SEM, BIRC5.

A further assay has as its target T9, BIRC7 (Homo sapiens, UniProt Q96CA5).
T9 sequence (Q96CA5 1-298): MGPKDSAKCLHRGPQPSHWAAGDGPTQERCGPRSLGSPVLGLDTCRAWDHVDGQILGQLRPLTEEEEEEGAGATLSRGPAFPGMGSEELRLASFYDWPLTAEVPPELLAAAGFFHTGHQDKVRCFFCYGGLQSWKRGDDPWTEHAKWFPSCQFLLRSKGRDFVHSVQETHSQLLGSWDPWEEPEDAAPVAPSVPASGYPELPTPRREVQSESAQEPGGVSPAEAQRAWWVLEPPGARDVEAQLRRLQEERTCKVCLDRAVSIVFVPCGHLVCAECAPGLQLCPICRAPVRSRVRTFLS
The assay can be described thus: NanoBRET cellular target engagement, full-length BIRC7.

The next assay addresses BIRC3 BIR2 (Homo sapiens, UniProt Q13489). The assay can be described thus: NanoBRET cellular target engagement, single domain BIRC3 BIR2. The following applies: Tracer KD,app ± SEM, BIRC3 BIR2, single domain, n = 4.
The target of a further assay is T10, BIRC8 (Homo sapiens, UniProt Q96P09).
T10 sequence (Q96P09 1-236): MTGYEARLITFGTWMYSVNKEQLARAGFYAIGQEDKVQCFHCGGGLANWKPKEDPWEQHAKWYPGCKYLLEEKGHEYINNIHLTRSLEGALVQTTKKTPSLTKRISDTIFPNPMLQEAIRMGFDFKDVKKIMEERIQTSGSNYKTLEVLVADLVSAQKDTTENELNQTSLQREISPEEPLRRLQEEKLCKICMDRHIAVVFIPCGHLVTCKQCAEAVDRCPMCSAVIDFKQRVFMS
The assay can be described thus: NanoBRET cellular target engagement, full-length BIRC8.

A further assay has as its target T11, BIRC8 BIR (Homo sapiens, UniProt Q96P09).
T11 sequence (Q96P09 1-90): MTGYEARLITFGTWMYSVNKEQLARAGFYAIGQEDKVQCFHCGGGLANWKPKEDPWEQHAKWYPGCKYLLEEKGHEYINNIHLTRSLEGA
The assay can be described thus: NanoBRET cellular target engagement, single domain BIRC8 BIR.

In the next assay the target is BIRC2 BIR3 (Homo sapiens, UniProt Q13490). The assay can be described thus: NanoBRET cellular target engagement, single domain BIRC2 BIR3.
The target in the next assay is T12, BIRC2 BIR1 (Homo sapiens, UniProt Q13490).
T12 construct: D24 S134; expressed in transfected cells; host or cells: HEK293T
The assay can be described thus: NanoBRET tracer titration, BIRC2 BIR1. It counts as cell-based. The settings on record: single domain, n = 4; read-out: Tracer KD,app ± SEM, BIRC2 BIR1.

Values joined by “and” are separate entries in the source; they are usually repeats but may differ in a detail not shown here. Identical values can stand only once.

T6 sequence (Q13075 256-391): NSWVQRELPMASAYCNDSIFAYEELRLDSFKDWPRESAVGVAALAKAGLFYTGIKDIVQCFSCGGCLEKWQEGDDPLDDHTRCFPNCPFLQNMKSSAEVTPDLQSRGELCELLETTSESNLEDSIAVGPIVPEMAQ
Chain of BIRC2 BIR3 (Q13490 251-372): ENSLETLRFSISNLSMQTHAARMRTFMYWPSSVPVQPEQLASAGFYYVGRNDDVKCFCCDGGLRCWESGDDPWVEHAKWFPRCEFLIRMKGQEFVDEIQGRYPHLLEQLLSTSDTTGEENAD
Chain of BIRC2 (Q13490 whole entry): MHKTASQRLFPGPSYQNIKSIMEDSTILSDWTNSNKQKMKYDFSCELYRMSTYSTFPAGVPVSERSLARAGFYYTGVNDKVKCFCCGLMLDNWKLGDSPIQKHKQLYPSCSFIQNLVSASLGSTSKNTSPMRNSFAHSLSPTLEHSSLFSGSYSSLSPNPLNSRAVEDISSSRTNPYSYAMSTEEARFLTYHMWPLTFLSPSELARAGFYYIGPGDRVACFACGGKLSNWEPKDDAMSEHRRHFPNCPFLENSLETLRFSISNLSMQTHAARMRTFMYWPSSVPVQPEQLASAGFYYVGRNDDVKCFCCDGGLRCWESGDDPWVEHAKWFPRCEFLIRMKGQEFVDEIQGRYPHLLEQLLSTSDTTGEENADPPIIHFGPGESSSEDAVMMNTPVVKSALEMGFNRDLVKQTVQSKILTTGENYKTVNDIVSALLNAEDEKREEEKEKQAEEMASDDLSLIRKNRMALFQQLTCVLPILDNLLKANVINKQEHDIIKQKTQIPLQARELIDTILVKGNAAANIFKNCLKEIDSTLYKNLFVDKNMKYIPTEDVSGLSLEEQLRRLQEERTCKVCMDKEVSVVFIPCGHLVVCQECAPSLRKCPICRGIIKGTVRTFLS
T12 sequence (Q13490 24-134): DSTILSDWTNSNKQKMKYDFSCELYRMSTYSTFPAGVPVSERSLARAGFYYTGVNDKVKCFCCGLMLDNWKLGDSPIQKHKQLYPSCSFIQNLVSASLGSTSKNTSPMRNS
T2 sequence (P98170 245-373): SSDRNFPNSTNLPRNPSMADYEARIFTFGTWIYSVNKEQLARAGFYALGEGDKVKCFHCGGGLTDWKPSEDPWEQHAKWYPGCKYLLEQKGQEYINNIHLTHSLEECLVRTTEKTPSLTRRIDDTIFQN
Chain of BIRC3 BIR2 (Q13489 147-253): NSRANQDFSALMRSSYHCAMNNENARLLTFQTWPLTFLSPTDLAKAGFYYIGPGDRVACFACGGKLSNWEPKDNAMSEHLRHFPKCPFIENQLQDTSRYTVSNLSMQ
Chain of BIRC2 BIR2 (Q13490 165-267): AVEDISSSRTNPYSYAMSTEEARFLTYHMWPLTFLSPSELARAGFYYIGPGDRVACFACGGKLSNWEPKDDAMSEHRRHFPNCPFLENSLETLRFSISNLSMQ
Chain of BIRC4 (P98170 whole entry): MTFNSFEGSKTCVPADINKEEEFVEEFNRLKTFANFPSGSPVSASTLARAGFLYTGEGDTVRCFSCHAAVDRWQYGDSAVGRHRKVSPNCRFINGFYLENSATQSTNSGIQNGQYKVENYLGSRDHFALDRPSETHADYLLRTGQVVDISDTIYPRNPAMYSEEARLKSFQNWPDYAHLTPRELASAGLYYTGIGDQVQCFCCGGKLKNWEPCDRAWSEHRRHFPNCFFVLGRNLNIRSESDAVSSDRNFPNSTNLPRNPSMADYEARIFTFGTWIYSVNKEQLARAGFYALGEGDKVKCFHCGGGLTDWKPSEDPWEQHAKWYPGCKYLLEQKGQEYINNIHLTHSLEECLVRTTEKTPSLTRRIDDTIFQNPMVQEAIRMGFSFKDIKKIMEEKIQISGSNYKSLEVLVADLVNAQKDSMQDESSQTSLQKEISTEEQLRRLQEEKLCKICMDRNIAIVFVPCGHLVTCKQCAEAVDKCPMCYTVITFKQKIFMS
Chain of BIRC3 (Q13489 whole entry): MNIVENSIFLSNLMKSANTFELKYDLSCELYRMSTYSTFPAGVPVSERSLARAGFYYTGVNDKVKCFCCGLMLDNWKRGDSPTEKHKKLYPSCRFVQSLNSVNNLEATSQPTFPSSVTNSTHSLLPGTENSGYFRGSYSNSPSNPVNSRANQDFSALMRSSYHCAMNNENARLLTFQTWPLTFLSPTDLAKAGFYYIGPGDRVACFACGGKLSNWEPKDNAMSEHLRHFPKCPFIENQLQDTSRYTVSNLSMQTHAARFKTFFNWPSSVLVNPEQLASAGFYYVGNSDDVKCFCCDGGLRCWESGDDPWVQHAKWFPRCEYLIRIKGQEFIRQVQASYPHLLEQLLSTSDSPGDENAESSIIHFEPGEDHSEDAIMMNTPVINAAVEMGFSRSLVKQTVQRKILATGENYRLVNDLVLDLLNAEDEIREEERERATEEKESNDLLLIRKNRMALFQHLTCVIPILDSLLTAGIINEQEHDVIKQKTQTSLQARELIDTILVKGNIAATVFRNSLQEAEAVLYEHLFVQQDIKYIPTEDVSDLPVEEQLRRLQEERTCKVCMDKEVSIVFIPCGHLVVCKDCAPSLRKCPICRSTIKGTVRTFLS
T1 sequence (P98170 144-253): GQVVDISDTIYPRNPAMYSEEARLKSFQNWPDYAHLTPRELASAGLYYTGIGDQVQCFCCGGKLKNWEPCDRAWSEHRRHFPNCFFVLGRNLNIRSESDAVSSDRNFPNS
T5 sequence (P98170 4-114): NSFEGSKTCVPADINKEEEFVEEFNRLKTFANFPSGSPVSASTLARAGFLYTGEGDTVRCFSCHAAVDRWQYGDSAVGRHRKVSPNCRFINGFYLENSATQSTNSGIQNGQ
Chain of BIRC3 BIR3 (Q13489 236-360): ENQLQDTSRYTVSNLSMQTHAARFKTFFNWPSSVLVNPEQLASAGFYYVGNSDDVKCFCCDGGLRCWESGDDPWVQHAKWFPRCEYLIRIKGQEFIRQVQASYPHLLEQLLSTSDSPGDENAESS
T8 sequence (O15392 whole entry): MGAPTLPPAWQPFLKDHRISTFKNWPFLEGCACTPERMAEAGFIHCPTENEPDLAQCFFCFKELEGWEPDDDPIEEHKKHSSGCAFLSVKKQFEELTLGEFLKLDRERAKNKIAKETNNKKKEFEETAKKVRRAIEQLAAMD
T7 sequence (Q13489 6-116): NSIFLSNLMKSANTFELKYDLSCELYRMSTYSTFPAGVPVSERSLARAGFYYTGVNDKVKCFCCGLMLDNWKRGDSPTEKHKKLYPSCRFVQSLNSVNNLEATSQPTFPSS
Method for BIRC2 BIR2: as §1
Method for BIRC2 BIR3: as §1
Method for BIRC3 BIR2: as §1
Method for BIRC3 BIR3: as §1
Method for BIRC7 BIR: as §1
Method for BIRC8 BIR: as §1

With `CNC(C)C(=O)NC(C(=O)N1CCCC1c1nc(C(=O)c2cccc(OCCOCCOCCNC(=O)CCc3ccc4n3[B-](F)(F)[N+]3=C(c5ccc[nH]5)C=CC3=C4)c2)cs1)C1CCCCC1` (centres unmarked) [IAP Tracer], the Kd was greater than 4 µM on BIRC4 BIR2; less than 250 nM at BIRC3 (Tracer K D, full-length BIRC3, full-length); 190 ± 30 nM at BIRC3 (Tracer KD,app ± SEM, BIRC3, full-length, n = 4); < 250 nM and 20 nM on BIRC2; greater than 4 µM at BIRC4 BIR3; 540 nM and < 1000 nM on BIRC7 BIR. Moreover, the Kd was 1790 nM and > 1000 nM at BIRC1 BIR[2]; less than 250 nM at BIRC4 (Tracer K D, full-length BIRC4, full-length); 40 nM on BIRC4 (Tracer KD,app ± SEM, BIRC4, full-length, n = 4); 2750 nM and > 1000 nM on BIRC4 BIR1; < 4 µM and > 4 µM and > 1 µM on BIRC1 BIR1; 2600 nM and > 1000 nM at BIRC2 BIR2. The Kd is 380 nM and < 1000 nM at BIRC3 BIR3; 2310 nM and > 1000 nM at BIRC3 BIR1; greater than 4 µM on BIRC5; less than 250 nM at BIRC7 (Tracer K D, full-length BIRC7, full-length); 250 ± 20 nM at BIRC7 (Tracer KD,app ± SEM, BIRC7, full-length, n = 4); 1670 nM and > 1000 nM at BIRC3 BIR2. The Kd on BIRC8 was 1060 ± 350 nM; on BIRC8 BIR it was 2760 ± 340 nM; at BIRC2 BIR3 (Tracer K D, app, BIRC2-BIR3 domain, single domain), 50 ± 10 nM; on BIRC2 BIR3 (Tracer KD,app ± SEM, BIRC2 BIR3, single domain, n = 4) it was less than 1000 nM; on BIRC2 BIR1, 2420 nM and > 1000 nM.
